# Measurements taken from patent US6831190B1, “Guanidinomethyl cyclohexane carboxylic acid ester derivatives” (Teikoku Chemical Industries Co., Ltd., priority 1994, dated 2004).
# Read-outs that look alike come from different tables or passages of the source.
# Key:
# Type in all cases: cell-based
# [1] = test system: Helicobacter pylori ATCC 43629; assay: MIC, agar plating dilution (standard method of Japanese Chemotherapy Academy)
# Protocol: (§1) 1. Minimum Inhibitory Concentration (MIC) was measured in accordance with the standard method of Japanese Chemotherapy Academy (Chemotherapy, 29: 76-79, 1981). Sensitivity was measured with an agar plating dilution using Brain-Heart Infusion agar (Difco Co.) which was added 0.1% of cyclodextrin. […] of the solutions of the compounds which were obtained in examples of the present invention was prepared by dissolving in dimethylsulfoxide. […] Each of 1 ml of those prepared solutions was dispensed in share, after sterilization, 9 ml of sensitivity measuring medium which is kept at 50° C. was added to each, and they were sufficiently mixed. The mixture was used as a plate for measuring sensitivity. Brain Heart Infusion agar medium (Difco Co.), which was added 0.1% of cyclodextrin, was used as bacteria growing medium, and was cultured under microair at 37° C. for three days, and the number of bacteria thereof was adjusted to about 106/ml. This was used as a bacterial solution for inoculation. The medium was painted in each square about 2 cm with nichromic line loop. The medium was cultured under microair for three days at 37° C.
# [2] = test system: Helicobacter pylori ATCC 43504; assay: as above
# Protocol: as §1
# [3] = test system: Escherichia coli NIH JC-2; assay: MIC, standard method of Japanese Chemotherapy Academy; conditions: Objected Strain 3: Escherichia coli NIH JC-2
# Protocol: 1. Minimum Inhibitory Concentration (MIC) was measured in accordance with the standard method of Japanese Chemotherapy Academy (Chemotherapy, 29: 76-79, 1981).
# [4] = Objected Strain 2: Helicobacter pylori ATCC 43629
# [5] = Objected Strain 1: Helicobacter pylori ATCC 43504
# [6] = ATCC43629, Objected Strain 2: Helicobacter pylori ATCC 43629, read-out: MIC
# [7] = ATCC43504, Objected Strain 1: Helicobacter pylori ATCC 43504, read-out: MIC
"MIC [1, 4] [mg/L]","MIC [2, 5] [mg/L]",MIC [3] [mg/L],"MIC [1, 6] [mg/L]","MIC [2, 7] [mg/L]","MIC ([3]; NIHJC2, read-out: MIC) [mg/L]",Structure (SMILES)
25,25,>25,–,–,–,"Cl.N=C(N)NC[C@H]1CC[C@H](C(=O)Oc2ccccc2-c2ccccc2)CC1 [Compound 2, trans4-guanidinomethyl cyclohexane carboxylic acid (2-phenylphenylester)hydrochloride, reference compound]"
25,25,>25,–,–,–,"Cl.N=C(N)NC[C@H]1CC[C@H](C(=O)Oc2ccc3ccccc3c2)CC1 [Compound 4, trans-4-guanidinomethyl cyclohexane carboxylic acid (2-naphthylester)hydrochloride, reference compound]"
–,–,–,6.25,12.5,> 25,"N=C(N)NCC1CCC(C(=O)Oc2ccc(C(=O)OCc3ccccc3)cc2)CC1 (stereo not drawn) [Compound 5, reference compound]"
–,–,–,25,25,> 25,"CCc1ccc(OC(=O)C2CCC(CNC(=N)N)CC2)cc1 (stereo not drawn) [Compound 6, reference compound]"
–,–,–,12.5,25,> 25,"CC(C)(C)c1ccc(OC(=O)C2CCC(CNC(=N)N)CC2)cc1 (stereo not drawn) [Compound 7, reference compound]"
0.39,1.56,>25,–,–,–,"Cl.N=C(N)NC[C@H]1CC[C@H](C(=O)Oc2ccc(-c3ccc(Br)cc3)cc2)CC1 [Example 4, trans-4-guanidinomethyl cyclohexane carboxylic acid [4-(4-bromophenyl)phenylester].hydrochloride]"
1.56,3.13,>25,–,–,–,"COc1ccc(-c2ccc(OC(=O)[C@H]3CC[C@H](CNC(=N)N)CC3)cc2)cc1.Cl [Example 5, trans-4-guanidinomethyl cyclohexane carboxylic acid [4-(4-methoxyphenyl)phenylester].hydrochloride]"
3.13,3.13,>25,–,–,–,"Cl.N#Cc1ccc(-c2ccc(OC(=O)[C@H]3CC[C@H](CNC(=N)N)CC3)cc2)cc1 [Example 7, trans4-guanidinomethyl cyclohexane carboxylic acid [4-(4-cyanophenyl)phenylester].hydrochloride]"
3.13,6.25,>25,–,–,–,"Cl.N=C(N)NC[C@H]1CC[C@H](C(=O)Oc2c(C(=O)OCc3ccccc3)cccc2-c2ccccc2)CC1 [Example 9, trans-4-guanidinomethyl cyclohexane carboxylic acid (2-benzyloxycarbonyl-6-phenylphenylester).hydrochloride]"
6.25,6.25,>25,–,–,–,"CS(=O)(=O)O.N=C(N)NC[C@H]1CC[C@H](C(=O)Oc2c(C(=O)OCc3ccc(F)cc3)cccc2-c2ccccc2)CC1 [Example 10, trans-4-guanidinomethyl cyclohexane carboxylic acid [2-(4-fluorobenzyloxycarbonyl)-6-phenylphenylester].methansulfonate]"
6.25,6.25,>25,–,–,–,"CS(=O)(=O)O.N=C(N)NC[C@H]1CC[C@H](C(=O)Oc2c(C(=O)OCc3ccc(F)cc3)cc(Br)cc2-c2ccccc2)CC1 [Example 11, trans-4-guanidinomethyl cyclohexane carboxylic acid [4-bromo-2-(4-fluorobenzyloxycarbonyl)-6-phenylphenylester].methanosulforate]"
3.13,3.13,>25,–,–,–,"Cl.N=C(N)NC[C@H]1CC[C@H](C(=O)Oc2c(Cl)cc(Cl)cc2-c2ccccc2)CC1 [Example 12, trans-4-guanidinomethyl cyclohexane carboxylic acid (2,4-dicloro-6-phenylphenylester).hydrochloride]"
12.5,12.5,>25,–,–,–,"Cl.N=C(N)NC[C@H]1CC[C@H](C(=O)Oc2c(Cl)cc(-c3ccccc3)cc2Cl)CC1 [Example 13, trans-4-guanidinomethyl cyclohexane carboxylic acid (2,6-dichloro-4-phenylphenylester).hydrochloride]"
3.13,1.56,>25,–,–,–,"Cl.N=C(N)NC[C@H]1CC[C@H](C(=O)Oc2ccc(-c3ccc([N+](=O)[O-])cc3)cc2)CC1 [Example 22, trans-4-guanidinomethyl cyclohexane carboxylic acid [4-(4-nitrophenyl)phenylester].hydrochloride]"
1.56,0.78,>25,–,–,–,"Cl.N=C(N)NC[C@H]1CC[C@H](C(=O)Oc2ccc(-c3ccc(F)cc3)cc2)CC1 [Example 27, trans-4-guanidinomethyl cyclohexane carboxylic acid[4-(4-fluorophenyl)phenylester].hydrochloride]"
12.5,6.25,>25,–,–,–,"Cl.N=C(N)NC[C@H]1CC[C@H](C(=O)Oc2c(Cl)cc(Cl)c3ccccc23)CC1 [Example 29, trans-4-guanidinomethyl cyclohexane carboxylic acid (2,4-dichloro-1-naphthylester).hydrochloride]"
3.13,3.13,>25,–,–,–,"Cl.N=C(N)NC[C@H]1CC[C@H](C(=O)Oc2c(Cl)cc(Cl)c3ccccc23)CC1 [Example 30, trans-4-guanidinomethyl cyclohexane carboxylic acid (2,4-dichloro-1-naphthyleter).hydrochloride]"
0.78,3.13,>25,–,–,–,"Cl.N=C(N)NC[C@H]1CC[C@H](C(=O)Oc2ccc3cc(Br)ccc3c2)CC1 [Example 31, trans-4-guanidinomethyl cyclohexane carboxylic acid (6-bromo-2-naphthyl ester).hydrochloride]"
0.78,3.13,>25,–,–,–,"Cl.N=C(N)NC[C@H]1CC[C@H](C(=O)Oc2ccc(C3CCCCC3)cc2)CC1 [Example 32, trans-4-guanidinomethyl cyclohexane carboxylic acid (4-cyclohexyphenylester).hydrochloride]"
12.5,12.5,>25,–,–,–,"Cl.N=C(N)NC[C@H]1CC[C@H](C(=O)Oc2ccc(Cc3ccccc3)cc2)CC1 [Example 33, trans-4-guanidinomethyl cyclohexane carboxylic acid (4-benzylphenylester).hydrochloride]"
25,25,>25,–,–,–,"CC(C)(c1ccccc1)c1ccc(OC(=O)[C@H]2CC[C@H](CNC(=N)N)CC2)cc1.Cl [Example 34, trans-4-guanidinomethyl cyclohexane carboxylic acid[4-(1-methyl-1-phenylethyl)phenylester].hydrochloride]"
25,12.5,>25,–,–,–,"Cl.N=C(N)NC[C@H]1CC[C@H](C(=O)Oc2ccc(Oc3ccccc3)cc2)CC1 [Example 35, trans-4-guanidinomethyl cyclohexane carboxylic acid (4-phenoxyphenylester).hydrochloride]"
0.39,0.78,>25,–,–,–,"Cl.N=C(N)NC[C@H]1CC[C@H](C(=O)Oc2ccc(C=Cc3ccccc3)cc2)CC1 [Example 38, trans-4-guanidinomethyl cyclohexane carboxylic acid (4-styrylphenylester).hydrochloride]"

Structure (SMILES),"MIC [1, 4] [mg/L]","MIC [2, 5] [mg/L]",MIC [3] [mg/L],"MIC [1, 6] [mg/L]","MIC [2, 7] [mg/L]","MIC ([3]; NIHJC2, read-out: MIC) [mg/L]"
"Cl.N=C(N)NC[C@H]1CC[C@H](C(=O)Oc2cccc3ccccc23)CC1 [Compound 3, trans-4-guanidinomethyl cyclohexane carboxylic acid (1-naphthylester)hydrochloride, reference compound]",>25,>25,>25,–,–,–
"Cl.N=C(N)NC[C@H]1CC[C@H](C(=O)Oc2cccc(-c3ccccc3)c2)CC1 [Example 1, trans-4-guanidinomethyl cyclohexane carboxylic acid (3-phenylphenylester).hydrochloride]",6.25,12.5,>25,–,–,–
"Cl.N=C(N)NC[C@H]1CC[C@H](C(=O)Oc2ccc(-c3ccccc3)cc2Cl)CC1 [Example 6, trans-4-guanidinomethyl cyclohexane carboxylic acid (2-chloro-4-phenylphenylester).hydrochloride]",1.56,6.25,>25,–,–,–
"Cl.N=C(N)NC[C@H]1CC[C@H](C(=O)Oc2ccc(OCc3ccccc3)cc2)CC1 [Example 37, trans-4-guanidinomethyl cyclohexane carboxylic acid (4-benzyloxyphenylester).hydrochloride]",3.13,12.5,>25,–,–,–
